Experimental data from PubChem BioAssay (NCI).
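Each compound was tested at five concentrations against cells in 96-well plates for 48 hours. TGI: total growth inhibition.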

Columns and labels:
Assay in all cases: NCI anticancer screen, dose series, 48 h
NCI-H522 lung = tested on: NCI-H522 lung
KM12 colon = tested on: KM12 colon
RXF 393 renal = tested on: RXF 393 renal
MDA-N = tested on: MDA-N
TK-10 renal = tested on: TK-10 renal
SNB-19 CNS = tested on: SNB-19 CNS
HOP-92 NSCLC = tested on: HOP-92 NSCLC
EKVX NSCLC = tested on: EKVX NSCLC
HCT-116 colon = tested on: HCT-116 colon
UACC-257 melanoma = tested on: UACC-257 melanoma
NCI/ADR-RES ovarian = tested on: NCI/ADR-RES ovarian
NCI-H460 lung = tested on: NCI-H460 lung
HCC-2998 colon = tested on: HCC-2998 colon
LOX IMVI melanoma = tested on: LOX IMVI melanoma
HCT-15 colon = tested on: HCT-15 colon
SNB-75 CNS = tested on: SNB-75 CNS
HS 578T breast = tested on: HS 578T breast
SK-OV-3 ovarian = tested on: SK-OV-3 ovarian
MOLT-4 leukemia = tested on: MOLT-4 leukemia
A549 NSCLC = tested on: A549 NSCLC
A498 renal = tested on: A498 renal
SK-MEL-28 melanoma = tested on: SK-MEL-28 melanoma
UACC-62 melanoma = tested on: UACC-62 melanoma
BT-549 breast = tested on: BT-549 breast
DU-145 prostate = tested on: DU-145 prostate
MDA-MB-435 = tested on: MDA-MB-435
U251 CNS = tested on: U251 CNS
OVCAR-8 ovarian = tested on: OVCAR-8 ovarian
NCI-H23 lung = tested on: NCI-H23 lung
M14 melanoma = tested on: M14 melanoma
OVCAR-4 ovarian = tested on: OVCAR-4 ovarian
K-562 leukemia = tested on: K-562 leukemia
CAKI-1 renal = tested on: CAKI-1 renal
T-47D breast = tested on: T-47D breast
HT29 colon = tested on: HT29 colon
HL-60(TB) leukemia = tested on: HL-60(TB) leukemia
OVCAR-3 ovarian = tested on: OVCAR-3 ovarian
SN12C renal = tested on: SN12C renal
ACHN renal = tested on: ACHN renal
OVCAR-5 ovarian = tested on: OVCAR-5 ovarian
SW-620 colon = tested on: SW-620 colon
786-0 renal = tested on: 786-0 renal
SK-MEL-5 melanoma = tested on: SK-MEL-5 melanoma
SF-295 CNS = tested on: SF-295 CNS
HOP-62 NSCLC = tested on: HOP-62 NSCLC
SF-268 CNS = tested on: SF-268 CNS
PC-3 prostate = tested on: PC-3 prostate
COLO 205 colon = tested on: COLO 205 colon
IGROV1 ovarian = tested on: IGROV1 ovarian
MALME-3M melanoma = tested on: MALME-3M melanoma
NCI-H226 lung = tested on: NCI-H226 lung
CCRF-CEM leukemia = tested on: CCRF-CEM leukemia
MCF7 breast = tested on: MCF7 breast
UO-31 renal = tested on: UO-31 renal
SR leukemia = tested on: SR leukemia
MDA-MB-231 breast = tested on: MDA-MB-231 breast
SF-539 CNS = tested on: SF-539 CNS
RPMI-8226 leukemia = tested on: RPMI-8226 leukemia
SK-MEL-2 melanoma = tested on: SK-MEL-2 melanoma

In the case of `CC1(C)[C@@H](Cn2cnc3c(N)ncnc32)CC[C@@]1(C)CO`, the TGI (NCI-H522 lung) is reported as over 100 µM, the TGI (KM12 colon) is reported as over 100 µM and the TGI (RXF 393 renal) is reported as over 100 µM. The TGI (MDA-N) was over 100 µM, the TGI (TK-10 renal) was over 100 µM and the TGI (SNB-19 CNS) was over 100 µM. For the same compound, the TGI (HOP-92 NSCLC) was over 100 µM, the TGI (EKVX NSCLC) was over 100 µM and the TGI (HCT-116 colon) was over 100 µM. It also gave a TGI (UACC-257 melanoma) of over 100 µM, a TGI (NCI/ADR-RES ovarian) of over 100 µM and a TGI (NCI-H460 lung) of over 100 µM. It also gave a TGI (HCC-2998 colon) of over 100 µM, a TGI (LOX IMVI melanoma) of over 100 µM and a TGI (HCT-15 colon) of over 100 µM. It also gave a TGI (SNB-75 CNS) of over 100 µM, a TGI (HS 578T breast) of over 100 µM and a TGI (SK-OV-3 ovarian) of over 100 µM. It also gave a TGI (MOLT-4 leukemia) of over 100 µM, a TGI (A549 NSCLC) of over 100 µM and a TGI (A498 renal) of over 100 µM. For the same compound, the TGI (SK-MEL-28 melanoma) was over 100 µM, the TGI (UACC-62 melanoma) was over 100 µM and the TGI (BT-549 breast) was over 100 µM. For the same compound, the TGI (DU-145 prostate) was over 100 µM, the TGI (MDA-MB-435) was over 100 µM and the TGI (U251 CNS) was over 100 µM. The TGI (OVCAR-8 ovarian) was over 100 µM, the TGI (NCI-H23 lung) was over 100 µM and the TGI (M14 melanoma) was over 100 µM. The TGI (OVCAR-4 ovarian) was over 100 µM, the TGI (K-562 leukemia) was over 100 µM and the TGI (CAKI-1 renal) was over 100 µM. The TGI (T-47D breast) was over 100 µM, the TGI (HT29 colon) was over 100 µM and the TGI (HL-60(TB) leukemia) was over 100 µM. It also gave a TGI (OVCAR-3 ovarian) of over 100 µM, a TGI (SN12C renal) of over 100 µM and a TGI (ACHN renal) of over 100 µM. It also gave a TGI (OVCAR-5 ovarian) of over 100 µM, a TGI (SW-620 colon) of over 100 µM and a TGI (786-0 renal) of over 100 µM. It also gave a TGI (SK-MEL-5 melanoma) of over 100 µM, a TGI (SF-295 CNS) of over 100 µM and a TGI (HOP-62 NSCLC) of over 100 µM. It also gave a TGI (SF-268 CNS) of over 100 µM, a TGI (PC-3 prostate) of over 100 µM and a TGI (COLO 205 colon) of over 100 µM. It also gave a TGI (IGROV1 ovarian) of over 100 µM, a TGI (MALME-3M melanoma) of over 100 µM and a TGI (NCI-H226 lung) of over 100 µM. It also gave a TGI (CCRF-CEM leukemia) of over 100 µM, a TGI (MCF7 breast) of over 100 µM and a TGI (UO-31 renal) of over 100 µM. It also gave a TGI (SR leukemia) of 76.8 µM and a TGI (MDA-MB-231 breast) of over 100 µM.
With `Clc1nc(Cl)c(Cl)c(Cl)n1` the TGI (SF-539 CNS) was 47.9 µM, the TGI (NCI-H522 lung) was 35 µM and the TGI (KM12 colon) was 28.9 µM. It also gave a TGI (RXF 393 renal) of 35 µM, a TGI (MDA-N) of 37.9 µM and a TGI (TK-10 renal) of 37.3 µM. The TGI (SNB-19 CNS) was 38.8 µM, the TGI (RPMI-8226 leukemia) was over 100 µM and the TGI (HOP-92 NSCLC) was 56.4 µM. It also gave a TGI (EKVX NSCLC) of 94.4 µM, a TGI (HCT-116 colon) of 38.2 µM and a TGI (UACC-257 melanoma) of 31.1 µM. The TGI (NCI/ADR-RES ovarian) was 59.4 µM, the TGI (NCI-H460 lung) was 51.9 µM and the TGI (HCC-2998 colon) was 35.5 µM. It also gave a TGI (LOX IMVI melanoma) of 27.3 µM, a TGI (HCT-15 colon) of 38.1 µM and a TGI (SNB-75 CNS) of 33.8 µM. For the same compound, the TGI (HS 578T breast) was 53.7 µM, the TGI (SK-OV-3 ovarian) was 30.3 µM and the TGI (MOLT-4 leukemia) was 15.5 µM. For the same compound, the TGI (A549 NSCLC) was 40.5 µM, the TGI (A498 renal) was 34.6 µM and the TGI (SK-MEL-28 melanoma) was 41.3 µM. The TGI (UACC-62 melanoma) was 35.7 µM, the TGI (BT-549 breast) was 42.4 µM and the TGI (DU-145 prostate) was 31.7 µM. It also gave a TGI (MDA-MB-435) of over 61 µM, a TGI (U251 CNS) of 36.1 µM and a TGI (OVCAR-8 ovarian) of 80.2 µM. It also gave a TGI (NCI-H23 lung) of 40.3 µM, a TGI (M14 melanoma) of 34.4 µM and a TGI (OVCAR-4 ovarian) of 46.8 µM. The TGI (K-562 leukemia) was 28 µM, the TGI (CAKI-1 renal) was 35.6 µM and the TGI (T-47D breast) was 41 µM. It also gave a TGI (HT29 colon) of 52.6 µM, a TGI (HL-60(TB) leukemia) of 33.1 µM and a TGI (OVCAR-3 ovarian) of 31.7 µM. The TGI (SN12C renal) was 42.7 µM, the TGI (ACHN renal) was 26 µM and the TGI (OVCAR-5 ovarian) was 43.1 µM. It also gave a TGI (SW-620 colon) of 20.1 µM, a TGI (786-0 renal) of 41.4 µM and a TGI (SK-MEL-5 melanoma) of 32.2 µM. For the same compound, the TGI (SF-295 CNS) was 36.9 µM, the TGI (HOP-62 NSCLC) was 35.7 µM and the TGI (SF-268 CNS) was 56.9 µM. The TGI (PC-3 prostate) was 34.4 µM, the TGI (COLO 205 colon) was 24.1 µM and the TGI (IGROV1 ovarian) was 38.7 µM. The TGI (MALME-3M melanoma) was 35.9 µM, the TGI (NCI-H226 lung) was 42.8 µM and the TGI (CCRF-CEM leukemia) was 15.2 µM. It also gave a TGI (MCF7 breast) of 37.9 µM, a TGI (UO-31 renal) of 46.4 µM and a TGI (SR leukemia) of 14.6 µM. It also gave a TGI (MDA-MB-231 breast) of 41.3 µM.
Work on `O=C(/C=C/c1ccsc1)c1ccco1` yielded a TGI (SF-539 CNS) of 32.5 µM, a TGI (NCI-H522 lung) of 4.67 µM and a TGI (KM12 colon) of over 22.2 µM. For the same compound, the TGI (RXF 393 renal) was 27 µM, the TGI (MDA-N) was 25.2 µM and the TGI (TK-10 renal) was 50.5 µM. For the same compound, the TGI (SNB-19 CNS) was 28.8 µM, the TGI (RPMI-8226 leukemia) was 16.1 µM and the TGI (HOP-92 NSCLC) was 30.6 µM. The TGI (EKVX NSCLC) was 36 µM, the TGI (HCT-116 colon) was 16.6 µM and the TGI (UACC-257 melanoma) was 38.6 µM. It also gave a TGI (NCI/ADR-RES ovarian) of 40.5 µM, a TGI (NCI-H460 lung) of 33.4 µM and a TGI (HCC-2998 colon) of 26.3 µM. It also gave a TGI (LOX IMVI melanoma) of 14.5 µM, a TGI (HCT-15 colon) of 20.1 µM and a TGI (SNB-75 CNS) of 26 µM. The TGI (HS 578T breast) was 29.6 µM, the TGI (SK-OV-3 ovarian) was 42.3 µM and the TGI (MOLT-4 leukemia) was 36 µM. The TGI (A549 NSCLC) was 11.7 µM, the TGI (A498 renal) was 17.8 µM and the TGI (SK-MEL-28 melanoma) was 25.4 µM. It also gave a TGI (UACC-62 melanoma) of 29.2 µM, a TGI (BT-549 breast) of 33.2 µM and a TGI (DU-145 prostate) of 26.4 µM. It also gave a TGI (MDA-MB-435) of over 50.3 µM, a TGI (U251 CNS) of 20.3 µM and a TGI (OVCAR-8 ovarian) of 24 µM. For the same compound, the TGI (NCI-H23 lung) was 30.9 µM, the TGI (M14 melanoma) was 24.2 µM and the TGI (OVCAR-4 ovarian) was over 37.2 µM. For the same compound, the TGI (K-562 leukemia) was over 56.4 µM, the TGI (T-47D breast) was 27.2 µM and the TGI (HT29 colon) was 22.8 µM. It also gave a TGI (HL-60(TB) leukemia) of 24 µM, a TGI (OVCAR-3 ovarian) of 26.9 µM and a TGI (SN12C renal) of 28.6 µM. It also gave a TGI (ACHN renal) of 22.8 µM, a TGI (OVCAR-5 ovarian) of 34.9 µM and a TGI (SW-620 colon) of 22 µM. It also gave a TGI (786-0 renal) of 24.4 µM, a TGI (SK-MEL-5 melanoma) of 29.7 µM and a TGI (SK-MEL-2 melanoma) of 38.9 µM. It also gave a TGI (SF-295 CNS) of 27.2 µM, a TGI (HOP-62 NSCLC) of 28.1 µM and a TGI (SF-268 CNS) of 38.5 µM. The TGI (PC-3 prostate) was 28.5 µM, the TGI (COLO 205 colon) was 32.8 µM and the TGI (IGROV1 ovarian) was 22.8 µM. For the same compound, the TGI (NCI-H226 lung) was over 63.6 µM, the TGI (CCRF-CEM leukemia) was 22.9 µM and the TGI (MCF7 breast) was 6.32 µM. For the same compound, the TGI (UO-31 renal) was 22.7 µM, the TGI (SR leukemia) was 9.14 µM and the TGI (MDA-MB-231 breast) was 26.9 µM.
